Series [1] concerns the target T1, synthetic red click beetle luciferase RD (RDver5.2; YG#81-6G01 variant A224H/S247H/N346I/H348Q/R351G), SEQ ID NO: 222 (Pyrophorus plagiophthalamus, UniProt Q718C1).
T1 construct: C-terminal tail changed
The series can be described thus: Km determination with partially purified enzyme (Table 3), RD. Type of series: biochemical. The text has this:
The parent click beetle luciferase YG#81-6G1 (“YG”), and the synthetic click beetle luciferase genes GRver5.1 (“GR”), RDver5.2 (“RD”), and RD156-1H9 were cloned into the four pGL3 reporter vectors (Promega Corp.): • pGL3-Basic=no promoter, no enhancer • pGL3-Control=SV40 promoter, SV40 enhancer • pGL3-Enhancer=SV40 enhancer (3′ to luciferase coding sequences) • pGL3-Promoter=SV40 promoter. The primers employed in the assembly of GR and RD synthetic genes facilitated the cloning of those genes into pRAM vectors. To introduce the genes into pGL3 vectors (Promega Corp., Madison, Wis.) for analysis in mammalian cells, each gene in a pRAM vector (pRAM RDver5.1, pRAM GRver5.1, and pRAM RD156-1H9) was amplified to introduce an Nco I site at the 5′ end and an Xba I site at the 3′ end of the gene. The primers for pRAM RDver5.1 and pRAM GRver5.1 were: […]
(§1) Partially purified enzymes expressed from the synthetic genes and the parent gene were employed to determine Km for luciferin and ATP (see Table 3).

For series [2], the system named is click beetle luciferase YG#81-6G01 (mutant of wild type LucPplYG, SEQ ID NO: 23), SEQ ID NO: 24. The settings on record: vs wild type LucPplYG; cited from earlier work.
A further series has as its system MCF-7 cells. The experiment in a line: TPA induction of Renilla luciferase co-reporter vectors in transfected MCF-7 cells (Table 13). Type of series: cell-based. The settings on record: Homo sapiens, MCF7, 24 h, 0.2 nM TPA, vs untreated. Here is the method:
Experimental treatment sometimes may activate cryptic sites within the gene and cause induction or suppression of the co-reporter expression, which would compromise its function as co-reporter for normalization of transfection efficiencies. One example is that TPA induces expression of co-reporter vectors harboring the wild-type gene when transfecting MCF-7 cells. 500 ng pRL-TK (native), 5 μg native and synthetic pRG-B, 2.5 μg native and synthetic pRG-TK were transfected per well of MCF-7 cells. 100 ng/well pGL3-control (firefly luc+) was co-transfected with all RL plasmids. Carrier DNA, pUC19, was used to bring the total DNA transfected to 5.1 μg/well. 15.3 μl TransFast Transfection Reagent (Promega Corp., Madison, Wis.) was added per well. Sixteen hours later, cells were trypsinized, pooled and split into six wells of a 6-well dish and allowed to attach to the well for 8 hours. Three wells were then treated with the 0.2 nM of the tumor promoter, TPA (phorbol-12-myristate-13-acetate, Calbiochem #524400-S), and three wells were mock treated with 20 μl DMSO. Cells were harvested with 0.4 ml Passive Lysis Buffer 24 hours post TPA addition.

Series [3] addresses T2, click beetle luciferase RDver5.2 variant RD156-0B4 (Pyrophorus plagiophthalamus, UniProt Q718C1, A224Y/A287S/C127T/C60V/F45V, form not given/H348Q/I288V/I91V/K85T/L262F/N249T/N346I/S247H/V325A/V389I/Y183F).
T2 construct: lysate of bacterial cells
The experiment in a line: Km for luciferin, lysates of bacterial cells (Table 6), RD156-0B4. The settings on record: read-out: Km Luciferin, CCLR lysate diluted 1:10, HEPES pH 7.8. Format: biochemical. The procedure:
(§2) Protocols and procedures used for the directed evolution are detailed in see PCT/WO9914336. DNA from the four clones with lower Km was combined and three libraries of random mutants were produced. The libraries were screened with the robot and clones with the highest LI values were selected. These clones were shuffled together and another robotic screen was completed with an incubation temperature of 46° C. The three clones with the highest LI values were RD156-0B4, RD156-1A5, and RD156-1H9.
(§3) The Km values for luciferin and the luminescence intensity relative to RDver5.2 were determined for all three clones in several independent experiments. All cells samples were processed with CCLR lysis buffer (E1483, Promega Corp., Madison, Wis.) and diluted 1:10 into buffer (25 mM HEPES pH 7.8, 5% glycerol, 1 mg/ml BSA, 150 mM NaCl). Table 7 summarizes the results (Lum: luminescence values were normalized to optical density; measurements for independent experiments are separated by forward slashes) from expression in bacterial cells. RD156-1H9, the clone with the highest luminescence intensity (5 to 10-fold increase) also has an about 2-fold higher Km for luciferin.

For series [4], the target named is T3, click beetle luciferase RDver5.2 variant RD156-1A5 (Pyrophorus plagiophthalamus, UniProt Q718C1, A224Y/A287S/C127T/C60V/F45V, form not given/H348Q/I288V/I91V/K85T/L262F/N249T/N346I/S247H/V325A/V389I/Y183F).
T3 construct: lysate of bacterial cells
The series can be described thus: Km for luciferin, lysates of bacterial cells (Table 6), RD156-1A5. Format: biochemical. The settings on record: read-out: Km Luciferin, CCLR lysate diluted 1:10, HEPES pH 7.8. Here is the method: as §2, §3

Series [5] addresses T4, click beetle luciferase RDver5.2 variant RD156-1H9 (M2I/S349T/K488T/E538V), SEQ ID NO: 223 (Pyrophorus plagiophthalamus, UniProt Q718C1).
T4 construct: C-terminal tail changed; lysate of bacterial cells
Type of series: biochemical. The following applies: for Km: read-out: Km Luciferin, CCLR lysate diluted 1:10, HEPES pH 7.8. The procedure: Protocols and procedures used for the directed evolution are detailed in see PCT/WO9914336. […] The libraries were screened with the robot and clones with the highest LI values were selected. These clones were shuffled together and another robotic screen was completed with an incubation temperature of 46° C.
The Km values for luciferin and the luminescence intensity relative to RDver5.2 were determined for all three clones in several independent experiments. All cells samples were processed with CCLR lysis buffer (E1483, Promega Corp., Madison, Wis.) and diluted 1:10 into buffer (25 mM HEPES pH 7.8, 5% glycerol, 1 mg/ml BSA, 150 mM NaCl). Table 7 summarizes the results (Lum: luminescence values were normalized to optical density; measurements for independent experiments are separated by forward slashes) from expression in bacterial cells.

Series [6] deals with T5, synthetic red click beetle luciferase RDver5.2 (YG#81-6G01 variant A224H/S247H/N346I/H348Q/R351G), SEQ ID NO: 222 (Pyrophorus plagiophthalamus, UniProt Q718C1).
T5 construct: C-terminal tail changed; lysate of bacterial cells
T5 sequence (Q718C1 entry or part of it, stated change not applied): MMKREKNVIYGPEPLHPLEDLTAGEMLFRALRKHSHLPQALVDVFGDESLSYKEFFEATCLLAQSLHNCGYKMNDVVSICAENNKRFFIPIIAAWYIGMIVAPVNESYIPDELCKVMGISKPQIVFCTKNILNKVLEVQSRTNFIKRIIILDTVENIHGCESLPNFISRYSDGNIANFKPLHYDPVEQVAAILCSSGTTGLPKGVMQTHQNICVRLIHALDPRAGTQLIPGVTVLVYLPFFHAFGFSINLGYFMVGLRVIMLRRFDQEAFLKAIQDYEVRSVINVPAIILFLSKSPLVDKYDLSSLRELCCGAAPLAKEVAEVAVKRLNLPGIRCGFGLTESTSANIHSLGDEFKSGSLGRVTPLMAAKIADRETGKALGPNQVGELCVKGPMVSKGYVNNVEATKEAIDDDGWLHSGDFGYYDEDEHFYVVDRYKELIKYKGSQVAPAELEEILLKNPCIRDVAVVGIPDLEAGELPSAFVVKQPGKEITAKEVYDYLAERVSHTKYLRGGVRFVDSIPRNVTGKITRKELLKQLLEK
The series can be described thus: Km for luciferin, lysates of bacterial cells (Table 6), RDver5.2. Format: biochemical. The settings on record: read-out: Km Luciferin, CCLR lysate diluted 1:10, HEPES pH 7.8. The procedure:
as §3

Substrate in series [7]: Nc1ncnc2c1ncn2[C@@H]1O[C@H](COP(=O)(O)OP(=O)(O)OP(=O)(O)O)[C@@H](O)[C@H]1O
The experiment in a line: Km determination with partially purified enzyme (Table 3), YG parent. Type of series: biochemical, Pyrophorus plagiophthalamus. The settings on record: other: partially purified enzyme.
Excerpt: as §1

Substrate in series [8]: O=C(O)[C@H]1CSC(c2nc3ccc(O)cc3s2)=N1
The series is described as above. The settings on record: other: partially purified enzyme. Type of series: biochemical, Pyrophorus plagiophthalamus.
Excerpt: as §1

Substrate in series [9]: O=C(O)[C@H]1CSC(c2nc3ccc(O)cc3s2)=N1
The series can be described thus: Km for luciferin, lysates of bacterial cells (Table 6), GRver5.1. Format: biochemical, Pyrophorus plagiophthalamus. The procedure: as §3

Read-outs that look alike come from different tables or passages of the source.

T4 sequence (Q718C1 entry or part of it, stated change not applied): as above
T1 sequence (Q718C1 entry or part of it, stated change not applied): as above

`Nc1ncnc2c1ncn2[C@@H]1O[C@H](COP(=O)(O)OP(=O)(O)OP(=O)(O)O)[C@@H](O)[C@H]1O` [ATP]: the Km in series [1] (read-out: KM (ATP)) came out at 46 µM. Also, the “KM for ATP compared to the wild type” value in [2] was “lower”.

Take `CCCCCCCCCCCCCC(=O)O[C@@H]1[C@@H](C)[C@@]2(O)[C@@H](C=C(CO)C[C@]3(O)C(=O)C(C)=C[C@@H]23)[C@@H]2C(C)(C)[C@]12OC(C)=O` [TPA, phorbol-12-myristate-13-acetate]: the fold induction (usually the signal under treatment as a multiple of the control signal) in the series with MCF-7 cells (pRG-B (final, synthetic Renilla gene)) is 1.47; with MCF-7 cells (pRG-B (native Renilla gene)) it was 8; in the series on MCF-7 cells (pRG-tk (final, synthetic Renilla gene)), 0.88; in the series on MCF-7 cells (pRG-tk (native Renilla gene)) it was 4.36; with MCF-7 cells (pRL-tk (native Renilla gene)), 4.4.

On to `O=C(O)[C@H]1CSC(c2nc3ccc(O)cc3s2)=N1` [luciferin], for which the Km was 24.5 µM in series [1] (read-out: KM (LH2)); 8 µM in series [3] (independent experiment 1); 10 µM in [3] (independent experiment 2); 13 µM in series [4] (independent experiment 1); 13 µM in [4] (independent experiment 2); 20 µM in series [5] (independent experiment 1). Besides, the Km in [5] (independent experiment 2) worked out at 23 µM; in series [5] (independent experiment 3) it was 23 µM; in [6] (prep #1, independent experiment 1), 12 µM; in series [6] (prep #1, independent experiment 2) it was 14 µM; in series [6] (prep #1, independent experiment 3) it was 14 µM; in [6] (prep #2, independent experiment 1) it was 40 µM. Moreover, in series [6] (prep #2, independent experiment 2), the Km came out at 50 µM. In addition, the “luciferin K, fold higher” value in series [5] (relative to GRver5.1) is “approximately 40 fold”. The “Km for luciferin, fold higher” value in series [5] (relative to RDver5.2) is reported as “about 2 fold”. For the same molecule, the “KM for luciferin compared to the wild type” value in [2] is recorded as “lower”.

B1: click beetle (Pyrophorus plagiophthalamus) luciferase YG#81-6G01 (YG parent, mutant of wild type LucPplYG), SEQ ID NO: 24 (Pyrophorus plagiophthalamus; … (protein)
chain: MMKREKNVIYGPEPLHPLEDLTAGEMLFRALRKHSHLPQALVDVVGDESLSYKEFFEATVLLAQSLHNCGYKMNDVVSICAENNTRFFIPVIAAWYIGMIVAPVNESYIPDELCKVMGISKPQIVFTTKNILNKVLEVQSRTNFIKRIIILDTVENIHGCESLPNFISRYSDGNIANFKPLHFDPVEQVAAILCSSGTTGLPKGVMQTHQNICVRLIHALDPRAGTQLIPGVTVLVYLPFFHAFGFSITLGYFMVGLRVIMFRRFDQEAFLKAIQDYEVRSVINVPSVILFLSKSPLVDKYDLSSLRELCCGAAPLAKEVAEVAAKRLNLPGIRCGFGLTESTSANIHSLRDEFKSGSLGRVTPLMAAKIADRETGKALGPNQVGELCIKGPMVSKGYVNNVEATKEAIDDDGWLHSGDFGYYDEDEHFYVVDRYKELIKYKGSQVAPAELEEILLKNPCIRDVAVVGIPDLEAGELPSAFVVKQPGKEITAKEVYDYLAERVSHTKYLRGGVRFVDSIPRNVTGKITRKELLKQLLEKAGG
notes: wild-type residues 540-543 replaced by 3 other residues
For B1, the Km is given as 17 μM μM in [7] and 2 μM μM in series [8].

B2: synthetic green click beetle luciferase GRver5.1 (YG#81-6G01 variant A224V), SEQ ID NO: 31 (Pyrophorus plagiophthalamus; … (protein)
chain: MMKREKNVIYGPEPLHPLEDLTAGEMLFRALRKHSHLPQALVDVVGDESLSYKEFFEATVLLAQSLHNCGYKMNDVVSICAENNTRFFIPVIAAWYIGMIVAPVNESYIPDELCKVMGISKPQIVFTTKNILNKVLEVQSRTNFIKRIIILDTVENIHGCESLPNFISRYSDGNIANFKPLHFDPVEQVAAILCSSGTTGLPKGVMQTHQNICVRLIHALDPRVGTQLIPGVTVLVYLPFFHAFGFSITLGYFMVGLRVIMFRRFDQEAFLKAIQDYEVRSVINVPSVILFLSKSPLVDKYDLSSLRELCCGAAPLAKEVAEVAAKRLNLPGIRCGFGLTESTSANIHSLRDEFKSGSLGRVTPLMAAKIADRETGKALGPNQVGELCIKGPMVSKGYVNNVEATKEAIDDDGWLHSGDFGYYDEDEHFYVVDRYKELIKYKGSQVAPAELEEILLKNPCIRDVAVVGIPDLEAGELPSAFVVKQPGKEITAKEVYDYLAERVSHTKYLRGGVRFVDSIPRNVTGKITRKELLKQLLEKAGG
notes: C-terminal tail changed; lysate of bacterial cells
With B2, the Km amounted to 0.5 µM in series [9] (other: prep #1, CCLR lysate diluted 1:10, HEPES pH 7.8) and 3 µM in series [9] (other: prep #2, CCLR lysate diluted 1:10, HEPES pH 7.8).

Source of the values: patent publication US7906282B2, “Synthetic nucleic acid molecule compositions and methods of preparation” (Promega Corporation, priority 2000, dated 2011).
